System: acutely irradiated mice
Assay: Prevention of radiation-induced mortality in mice after 8.5 Gy total body irradiation (survival analysis)
Type: in vivo, C57B1/6 male mice
Description: Eighty-six (86) C57B1/6 male mice were randomized into 6 groups. Group 1 (n=6) served as the untreated control group (no apilimod dimesylate or radiation). Animals in Groups 2-6 (n=16/group) were exposed to an 8.5 Gy dose of total body irradiation on Day 0. Radiation was generated with a 160 kilovolt potential (18-ma) source at a focal distance of 25 cm, hardened with a 0.35 mm A1 filtration system. Irradiation targeted the total body at a rate of approximately 1.0 Gy/minute. The total radiation dose and dose rate was measured in real time with a Farmer-type ionization chamber and a Fluke 35040 ATD dosimeter. No anesthesia was used during irradiation. Animals were monitored for survival twice daily and those that lost greater than 30% of their total starting body weight were euthanized. Animals in Groups 2 through 6 were dosed with apilimod dimesylate or vehicle exactly 3 hrs prior to radiation on Day 0 via oral gavage (PO) or intraperitoneal injection (IP) as indicated in Table 1 below. All animals were given ad libitum access to acidified drinking (pH 2.8-3.0) water from Day 3 through study completion.

Cc1cccc(/C=N/Nc2cc(N3CCOCC3)nc(OCCc3ccccn3)n2)c1 [apilimod dimesylate]
percentage of surviving animals (60 mg/kg i.p. single dose 3 hrs prior to 8.5 Gy TBI, study to Day 31, vehicle 6.25%): 43.75%
median time of survival (60 mg/kg i.p. single dose 3 hrs prior to 8.5 Gy TBI, vehicle 13.5 days): 21 days
survival (survival analysis, in words) (180 mg/kg p.o. single dose 3 hrs prior to 8.5 Gy TBI, did not reach statistical significance): trend towards increased survival
survival protection (survival analysis, in words) (delivered by intraperitoneal injection, 60 mg/kg, 3 hrs prior to 8.5 Gy TBI): significant survival protection

Reference: patent US10702534B2, “Compositions and methods relating to the radioprotective effects of apilimod” (priority 2017, dated 2020)
